Test results from ChEMBL document CHEMBL4431356, “Synthesis and activity of benzimidazole-1,3-dioxide inhibitors of separase” (Bioorg Med Chem Lett, 2016).

What follows are compounds tested against T1, Separin (Homo sapiens, UniProt Q14674) (assay: Inhibition of epitope-tagged separase (unknown origin) using Rad21-MCA as substrate preincubated for 1 hr followed by substrate addition measured after 3 hrs by fluorescence assay).
T1 sequence (Q14674 whole entry): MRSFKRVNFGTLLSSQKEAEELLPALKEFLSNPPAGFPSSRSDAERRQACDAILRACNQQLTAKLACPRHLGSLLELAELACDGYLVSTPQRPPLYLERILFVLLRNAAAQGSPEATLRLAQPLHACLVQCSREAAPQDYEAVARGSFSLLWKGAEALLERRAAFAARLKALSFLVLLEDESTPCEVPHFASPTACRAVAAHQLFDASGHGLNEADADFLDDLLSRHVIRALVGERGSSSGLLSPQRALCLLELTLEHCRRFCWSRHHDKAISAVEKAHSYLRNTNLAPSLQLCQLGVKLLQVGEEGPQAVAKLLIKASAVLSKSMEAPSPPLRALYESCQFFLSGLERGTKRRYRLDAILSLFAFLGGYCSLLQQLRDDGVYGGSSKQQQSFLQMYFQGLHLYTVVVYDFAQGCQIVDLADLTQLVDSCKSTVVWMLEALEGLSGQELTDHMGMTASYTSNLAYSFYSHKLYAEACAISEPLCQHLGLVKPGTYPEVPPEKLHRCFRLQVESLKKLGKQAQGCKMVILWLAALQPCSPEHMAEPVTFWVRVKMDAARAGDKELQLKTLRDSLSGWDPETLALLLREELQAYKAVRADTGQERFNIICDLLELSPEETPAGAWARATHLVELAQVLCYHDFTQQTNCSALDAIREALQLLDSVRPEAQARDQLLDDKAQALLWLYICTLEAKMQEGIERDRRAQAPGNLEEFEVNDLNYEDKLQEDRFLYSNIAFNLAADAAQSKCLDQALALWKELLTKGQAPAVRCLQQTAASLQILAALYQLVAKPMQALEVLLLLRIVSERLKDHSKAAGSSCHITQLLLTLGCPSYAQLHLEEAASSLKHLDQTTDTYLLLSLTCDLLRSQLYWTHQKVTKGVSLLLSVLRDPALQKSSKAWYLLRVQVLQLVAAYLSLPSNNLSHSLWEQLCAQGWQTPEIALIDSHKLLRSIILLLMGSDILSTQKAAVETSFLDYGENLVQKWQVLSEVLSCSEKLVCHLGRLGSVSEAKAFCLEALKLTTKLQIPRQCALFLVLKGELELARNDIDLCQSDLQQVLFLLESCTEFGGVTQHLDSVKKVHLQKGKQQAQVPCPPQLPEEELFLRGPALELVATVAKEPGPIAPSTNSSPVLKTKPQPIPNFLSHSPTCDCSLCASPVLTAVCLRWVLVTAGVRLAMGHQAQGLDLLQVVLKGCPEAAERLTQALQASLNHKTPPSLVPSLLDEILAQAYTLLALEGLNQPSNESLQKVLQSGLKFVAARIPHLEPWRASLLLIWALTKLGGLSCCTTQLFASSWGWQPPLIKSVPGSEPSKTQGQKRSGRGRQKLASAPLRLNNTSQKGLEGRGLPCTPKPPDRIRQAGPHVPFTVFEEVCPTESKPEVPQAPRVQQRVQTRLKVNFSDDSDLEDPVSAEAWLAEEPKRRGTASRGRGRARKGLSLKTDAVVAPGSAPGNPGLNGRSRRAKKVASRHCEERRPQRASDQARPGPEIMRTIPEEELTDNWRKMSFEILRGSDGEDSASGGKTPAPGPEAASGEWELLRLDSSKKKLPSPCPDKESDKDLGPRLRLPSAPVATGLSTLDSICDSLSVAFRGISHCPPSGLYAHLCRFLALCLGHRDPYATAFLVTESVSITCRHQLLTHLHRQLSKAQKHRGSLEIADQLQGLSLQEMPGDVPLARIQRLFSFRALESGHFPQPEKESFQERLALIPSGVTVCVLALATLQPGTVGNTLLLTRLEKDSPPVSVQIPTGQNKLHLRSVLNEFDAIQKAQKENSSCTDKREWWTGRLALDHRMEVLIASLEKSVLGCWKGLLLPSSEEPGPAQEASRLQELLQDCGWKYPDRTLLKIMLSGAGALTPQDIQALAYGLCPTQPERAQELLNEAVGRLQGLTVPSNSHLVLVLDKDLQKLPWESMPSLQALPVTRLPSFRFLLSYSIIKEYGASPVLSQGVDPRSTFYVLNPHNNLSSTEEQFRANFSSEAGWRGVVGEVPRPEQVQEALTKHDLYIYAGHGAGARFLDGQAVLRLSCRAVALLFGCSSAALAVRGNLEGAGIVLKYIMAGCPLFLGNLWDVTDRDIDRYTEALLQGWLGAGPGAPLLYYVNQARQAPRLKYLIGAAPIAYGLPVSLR

| SMILES | IC50 |
| --- | --- |
| O=[N+]([O-])c1ccc2c(c1)=[N+]([O-])C1(CCCCC1)[N+]=2[O-] | 16.2 µM |
| CC1(C)[N+]([O-])=c2ccc(Br)cc2=[N+]1[O-] | > 100 µM |
| CC1(C)[N+]([O-])=c2ccc(C(F)(F)F)cc2=[N+]1[O-] | > 100 µM |
| CCOc1ccc2c(c1)=[N+]([O-])C(C)(C)[N+]=2[O-] | > 100 µM |
| CC1(C)[N+]([O-])=c2ccc(C(=O)O)cc2=[N+]1[O-] | > 100 µM |
| O=[N+]([O-])c1ccc2nonc2c1 | > 100 µM |
| CCOc1cc2c(cc1F)=[N+]([O-])C(C)(C)[N+]=2[O-] | > 100 µM |
| CC1(C)[N+]([O-])=c2ccc([N+](=O)[O-])cc2=[N+]1[O-] | 17.8 µM |
| COC(=O)c1ccc2c(c1)[n+]([O-])c(C)c(C)[n+]2[O-] | > 100 µM |
| COC(=O)c1ccc2c(c1)=[N+]([O-])C(C)(C)[N+]=2[O-] | > 100 µM |
| CC1(C)[N+]([O-])=c2ccc(-c3ccccc3)cc2=[N+]1[O-] | > 100 µM |
| CC1(C)[N+]([O-])=c2ccc(F)cc2=[N+]1[O-] | > 100 µM |
| CCCCNc1ccc2c(c1)=[N+]([O-])C(C)(C)[N+]=2[O-] | > 100 µM |

These compounds were tested against T1, Separin (assay: Inhibition of human ZZ TEV4-tagged separase expressed in human 293T cells using (Rad21)2-Rh110 as substrate preincubated for 1 hr followed by substrate addition measured after 3 hrs by fluorescence assay).

| SMILES | IC50 |
| --- | --- |
| CC1(C)[N+]([O-])=c2ccc([N+](=O)[O-])cc2=[N+]1[O-] | 15 µM |
